The test system of assay [1] is HT1080 cells. Briefly: Cellular assay for IDH1m inhibitors: inhibition of 2-HG production in HT1080 cells (LC-MS). The class given is cell-based. On the procedure:
(§1) Cells (e.g., HT1080 or U87MG) are grown in T125 flasks in DMEM containing 10% FBS, 1× penicillin/streptomycin and 500 ug/mL G418. They are harvested by trypsin and seeded into 96 well white bottom plates at a density of 5000 cell/well in 100 ul/well in DMEM with 10% FBS. No cells are plates in columns 1 and 12. Cells are incubated overnight at 37 C in 5% CO2. The next day compounds are made up at 2× concentration and 100 ul are added to each cell well. The final concentration of DMSO is 0.2% and the DMSO control wells are plated in row G. The plates are then placed in the incubator for 48 hours. At 48 hours, 100 ul of media is removed from each well and analyzed by LC-MS for 2-HG concentrations. The cell plate is placed back in the incubator for another 24 hours. At 72 hours post compound addition, 10 mL/plate of Promega Cell Titer Glo reagent is thawed and mixed. The cell plate is removed from the incubator and allowed to equilibrate to room temperature. Then 100 ul of reagent is added to each well of media. The cell plate is then placed on an orbital shaker for 10 minutes and then allowed to sit at room temperature for 20 minutes. The plate is then read for luminescence with an integration time of 500 ms.

Assay [2] relates to U87R132H (U87MG) cells. Description: Cellular assay for IDH1m inhibitors: inhibition of 2-HG production in U87MG (U87R132H) cells (LC-MS). It is filed as cell-based. Conditions: 48 hours. As for the experimental part: as §1
The target of assay [3] is IDH1 R132H (Homo sapiens (Human), UniProt O75874, R132H). Briefly: Assays for IDH1 R132H Inhibitors (NADPH/aKG, resazurin detection). The class given is biochemical. Conditions: IDH1 R132H enzyme, Table 3; read-out: R132H IC50. The method, boiled down:
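Substrate mix held 8 uM NADPH plus 2 mM aKG; buffer was 20 mM Tris pH 7.5 with 150 mM NaCl, 10 mM MgCl2, 0.03% BSA. After 50 min room-temperature reaction, NADPH remaining was detected with 30 μM resazurin mix over 5 min.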
In general terms: The colour change of resazurin is a common sign of viable cells or microbes.

The mark [4] stands for this setting: Homo sapiens, HT-1080, 48 hours.

Chain of IDH1 R132H (O75874 whole entry R132H): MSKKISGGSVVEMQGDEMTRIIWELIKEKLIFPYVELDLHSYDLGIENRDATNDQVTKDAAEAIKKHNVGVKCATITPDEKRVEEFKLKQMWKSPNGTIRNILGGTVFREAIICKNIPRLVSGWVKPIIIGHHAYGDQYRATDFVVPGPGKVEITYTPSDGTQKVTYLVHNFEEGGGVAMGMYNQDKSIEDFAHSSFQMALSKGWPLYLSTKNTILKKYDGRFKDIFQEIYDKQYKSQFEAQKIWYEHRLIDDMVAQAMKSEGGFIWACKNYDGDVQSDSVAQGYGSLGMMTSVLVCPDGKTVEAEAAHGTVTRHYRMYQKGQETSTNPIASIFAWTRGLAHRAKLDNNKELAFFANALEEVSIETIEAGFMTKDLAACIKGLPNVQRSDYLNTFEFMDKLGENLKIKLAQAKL

In general, IC50 refers to the midpoint of a concentration-inhibition curve. `COC(=O)[C@@H]1C[C@H]1C(=O)N1CCN(c2nc(C3CC3)c3c(c2C#N)CC(C)(C)OC3)C[C@H]1C(C)C` [Compound 454]: the figures for the IC50 in assay [1] (48 hours), in assay [2] and in assay [3] were 500 to 1000 nM, 500 to 1000 nM and < 500 nM, respectively.

`[2H]C1([2H])CN(c2nc(C3CC3)c3c(c2C#N)CC(C)(C)OC3)C([2H])([2H])[C@@]([2H])(C([2H])(C([2H])([2H])[2H])C([2H])([2H])[2H])N1C(=O)CCOC` [Compound 438, (R)-8-cyclopropyl-3,3-dimethyl-6-(2,2,3,5,5-pentadeuterio-4-(3-methoxypropanoyl)-3-(perdeuteriopropan-2-yl)piperazin-1-yl)-3,4-dihydro-1H-pyrano[3,4-c]pyridine-5-carbonitrile]: the IC50 was < 500 nM in assay [1] (setting [4]); < 500 nM in assay [2] (Homo sapiens, U-87 MG); < 500 nM in assay [3].

With `C=CC(=O)N1CCc2c(C3CC3)nc(N3CCN(C(=O)CCOC)[C@H](C4CC4)C3)c(C#N)c2C1` [Compound 483, (R)-6-acryloyl-1-cyclopropyl-3-(3-cyclopropyl-4-(3-methoxypropanoyl)piperazin-1-yl)-5,6,7,8-tetrahydro-2,6-naphthyridine-4-carbonitrile], the IC50 in assay [1] (setting [4]) is < 500 nM; in assay [2] (Homo sapiens, U-87 MG), < 500 nM; in assay [3], < 500 nM.

For `COC(=O)NCCC(=O)N1CCN(c2nc(C3CC3)c3c(c2C#N)CC(C)(C)OC3)C[C@H]1C(C)C` [Compound 431, (R)-methyl 3-(4-(5-cyano-8-cyclopropyl-3,3-dimethyl-3,4-dihydro-1H-pyrano[3,4-c]pyridin-6-yl)-2-isopropylpiperazin-1-yl)-3-oxopropylcarbamate], the IC50 in assay [1] (setting [4]) lay in the range of 1000 to 10000 nM; in assay [2] (Homo sapiens, U-87 MG) it was 1000 to 10000 nM; in assay [3], 500 to 1000 nM.

On to `CC(C)[C@@H]1CN(c2nc(C3CC3)c3c(c2C#N)CC(C)(C)OC3)CCN1C(=O)Cc1nnco1` [Compound 455, (R)-6-(4-(2-(1,3,4-oxadiazol-2-yl)acetyl)-3-isopropylpiperazin-1-yl)-8-cyclopropyl-3,3-dimethyl-3,4-dihydro-1H-pyrano[3,4-c]pyridine-5-carbonitrile], for which the IC50 is < 500 nM in assay [1] (setting [4]); < 500 nM in assay [2] (Homo sapiens, U-87 MG); 500 to 1000 nM in assay [3].

Turning to `COCCC(=O)N1CCN(c2nc(C3CC3)c3c(c2C#N)CC(C)(C)OC3)CC1C1CC1` (stereo not drawn) [Compound 425, 8-cyclopropyl-6-(3-cyclopropyl-4-(3-methoxypropanoyl)piperazin-1-yl)-3,3-dimethyl-3,4-dihydro-1H-pyrano[3,4-c]pyridine-5-carbonitrile], the IC50 in assay [1] (setting [4]) is < 500 nM; in assay [2] (Homo sapiens, U-87 MG), < 500 nM; in assay [3], < 500 nM.

Turning to `COCCC(=O)N1CCN(c2nc(C3CC3)c3c(c2C#N)CC(C)(C)OC3)C[C@H]1C1CC1` [Compound 434, (R)-8-cyclopropyl-6-(3-cyclopropyl-4-(3-methoxypropanoyl)piperazin-1-yl)-3,3-dimethyl-3,4-dihydro-1H-pyrano[3,4-c]pyridine-5-carbonitrile], the IC50 in assay [1] (setting [4]) is < 500 nM; in assay [2] (Homo sapiens, U-87 MG) it was < 500 nM; in assay [3], < 500 nM.

Consider `[2H]C([2H])([2H])C([2H])(C([2H])([2H])[2H])[C@@]1([2H])N(C(=O)CCOC)C([2H])([2H])C([2H])([2H])N(c2nc(C3CC3)c3c(c2C#N)CC(C)(C)OC3)C1([2H])[2H]` [Compound 441, (R)-8-cyclopropyl-6-(2,2,3,3,5,6,6-heptadeuterio-4-(3-methoxypropanoyl)-5-(perdeuteriopropan-2-yl)piperazin-1-yl)-3,3-dimethyl-3,4-dihydro-1H-pyrano[3,4-c]pyridine-5-carbonitrile], for which the IC50 in assay [1] (setting [4]) was < 500 nM; in assay [2] (Homo sapiens, U-87 MG), < 500 nM; in assay [3] it was < 500 nM.

As for `CS(=O)(=O)N1CCc2c(C#N)c(N3CCN(C(=O)C4CC4)[C@H](C4CC4)C3)nc(C3CC3)c2C1` [Compound 481, (R)-3-(4-(cyclopropanecarbonyl)-3-cyclopropylpiperazin-1-yl)-1-cyclopropyl-7-(methylsulfonyl)-5,6,7,8-tetrahydro-2,7-naphthyridine-4-carbonitrile], the half-inhibitory concentration (IC50) was 1000 to 10000 nM in assay [1] (setting [4]); 500 to 1000 nM in assay [2] (Homo sapiens, U-87 MG); < 500 nM in assay [3].

For `[2H]C([2H])([2H])C([2H])(C([2H])([2H])[2H])[C@@]1([2H])N(C(=O)CCC(=O)OC)C([2H])([2H])C([2H])([2H])N(c2nc(C3CC3)c3c(c2C#N)CC(C)(C)OC3)C1([2H])[2H]` [Compound 450], the IC50 in assay [1] (setting [4]) was < 500 nM; in assay [2] (Homo sapiens, U-87 MG), < 500 nM; in assay [3], < 500 nM.

On to `CC1(C)Cc2c(C#N)c(N3CCN(C(=O)c4ccoc4)C(C4CC4)C3)nc(C3CC3)c2CO1` (stereo not drawn) [Compound 426, 8-cyclopropyl-6-(3-cyclopropyl-4-(furan-3-carbonyl)piperazin-1-yl)-3,3-dimethyl-3,4-dihydro-1H-pyrano[3,4-c]pyridine-5-carbonitrile], for which the IC50 in assay [1] (setting [4]) is < 500 nM; in assay [2] (Homo sapiens, U-87 MG), 500 to 1000 nM; in assay [3], < 500 nM.

Regarding `CC(C)[C@@H]1CN(c2nc(C3CC3)c3c(c2C#N)CC(C)(C)OC3)CCN1C(=O)CC1CCO1` (stereo partly drawn) [Compound 473, 8-cyclopropyl-6-((3R)-3-isopropyl-4-(2-(oxetan-2-yl)acetyl)piperazin-1-yl)-3,3-dimethyl-3,4-dihydro-1H-pyrano[3,4-c]pyridine-5-carbonitrile], the IC50 is < 500 nM in assay [1] (setting [4]); 500 to 1000 nM in assay [2] (Homo sapiens, U-87 MG); < 500 nM in assay [3].

Consider `C=CC(=O)N1CCc2c(C#N)c(N3CCN(C(=O)CCO)[C@H](C4CC4)C3)nc(C3CC3)c2C1` [Compound 498, (R)-7-acryloyl-1-cyclopropyl-3-(3-cyclopropyl-4-(3-hydroxypropanoyl)piperazin-1-yl)-5,6,7,8-tetrahydro-2,7-naphthyridine-4-carbonitrile], for which the IC50 in assay [1] (setting [4]) was < 500 nM; in assay [2] (Homo sapiens, U-87 MG), < 500 nM; in assay [3], < 500 nM.

With `COC(=O)CC(=O)N1CCN(c2nc(C3CC3)c3c(c2C#N)CC(C)(C)OC3)C[C@H]1C1CC1` [Compound 440, (R)-methyl 3-(4-(5-cyano-8-cyclopropyl-3,3-dimethyl-3,4-dihydro-1H-pyrano[3,4-c]pyridin-6-yl)-2-cyclopropylpiperazin-1-yl)-3-oxopropanoate], the IC50 in assay [1] (setting [4]) was < 500 nM; in assay [2] (Homo sapiens, U-87 MG), < 500 nM; in assay [3], < 500 nM.

With `C=CS(=O)(=O)N1CCc2c(C#N)c(N3CCN(C(=O)C4CC4)[C@H](C4CC4)C3)nc(C3CC3)c2C1` [Compound 493, (R)-3-(4-(cyclopropanecarbonyl)-3-cyclopropylpiperazin-1-yl)-1-cyclopropyl-7-(vinylsulfonyl)-5,6,7,8-tetrahydro-2,7-naphthyridine-4-carbonitrile], the IC50 in assay [1] (setting [4]) is < 500 nM; in assay [2] (Homo sapiens, U-87 MG), < 500 nM; in assay [3] it was < 500 nM.

On to `CC1(C)Cc2c(C#N)c(N3CCN(C(=O)CC(F)(F)F)C(C4CC4)C3)nc(C3CC3)c2CO1` (stereo not drawn) [Compound 430, 8-cyclopropyl-6-(3-cyclopropyl-4-(3,3,3-trifluoropropanoyl)piperazin-1-yl)-3,3-dimethyl-3,4-dihydro-1H-pyrano[3,4-c]pyridine-5-carbonitrile], for which the IC50 in assay [1] (setting [4]) is 500 to 1000 nM; in assay [2] (Homo sapiens, U-87 MG) it was < 500 nM; in assay [3], < 500 nM.

On to `C=CC(=O)N1CCc2c(C#N)c(N3CCN(C(=O)CCOC)[C@H](C4CC4)C3)nc(C3CC3)c2C1` [Compound 485, (R)-7-acryloyl-1-cyclopropyl-3-(3-cyclopropyl-4-(3-methoxypropanoyl)piperazin-1-yl)-5,6,7,8-tetrahydro-2,7-naphthyridine-4-carbonitrile], for which the IC50 is < 500 nM in assay [1] (setting [4]); < 500 nM in assay [2] (Homo sapiens, U-87 MG); < 500 nM in assay [3].

`CC(O)CC(=O)N1CCN(c2nc(C3CC3)c3c(c2C#N)CC(C)(C)OC3)C[C@H]1C(C)C` (stereo partly drawn) [Compound 433, 8-cyclopropyl-6-((3R)-4-(3-hydroxybutanoyl)-3-isopropylpiperazin-1-yl)-3,3-dimethyl-3,4-dihydro-1H-pyrano[3,4-c]pyridine-5-carbonitrile]: the concentration for half-maximal inhibition (IC50) in assay [1] (setting [4]) was 500 to 1000 nM; in assay [2] (Homo sapiens, U-87 MG), 500 to 1000 nM; in assay [3], < 500 nM.

As to `CC1(C)Cc2c(C#N)c(N3CCN(C(=O)CCO)[C@H](C4CC4)C3)nc(C3CC3)c2CO1` [Compound 460, (R)-8-cyclopropyl-6-(3-cyclopropyl-4-(3-hydroxypropanoyl)piperazin-1-yl)-3,3-dimethyl-3,4-dihydro-1H-pyrano[3,4-c]pyridine-5-carbonitrile], the IC50 in assay [1] (setting [4]) is < 500 nM; in assay [2] (Homo sapiens, U-87 MG) it was < 500 nM; in assay [3], < 500 nM.

As to `CC(C)[C@@H]1CN(c2nc(C3CC3)c3c(c2C#N)CC(C)(C)OC3)CCN1C(=O)CC(F)(F)F` [Compound 423, (R)-8-cyclopropyl-6-(3-isopropyl-4-(3,3,3-trifluoropropanoyl)piperazin-1-yl)-3,3-dimethyl-3,4-dihydro-1H-pyrano[3,4-c]pyridine-5-carbonitrile], the IC50 in assay [1] (setting [4]) is 1000 to 10000 nM; in assay [2] (Homo sapiens, U-87 MG), 500 to 1000 nM; in assay [3], < 500 nM.
